The term inhibition denotes the percentage by which the read-out fell short of the control. A low value points to a weak effect.

The results in this text go back to patent US20120270237A9, “METHODS FOR THE IDENTIFICATION OF KINASE INTERACTING MOLECULES AND FOR THE PURIFICATION OF KINASE PROTEINS” (Cellzone AG, priority 2009, published 2012).

What all share (assay): Kinobeads competition binding, HL60 cell lysate
What all share (parameters): endogenous in cells; host or cells: HL60 cells
Conditions in all cases: 10 μM free compound

Experiment [1] deals with QIK (Homo sapiens, UniProt Q9H0K1). How it is done: (§1) To one aliquot of cell lysate 10 μM of the free compound (FIG. 3, CZC31326) was added and allowed to bind to proteins in the lysate. Then the affinity matrix with the immobilized compound (Example 1) was added to capture proteins that were not interacting with the previously added free compound. Beads were separated from the lysate and bead bound proteins were eluted in SDS sample buffer and subsequently separated by SDS-Polyacrylamide gel electrophoresis (FIG. 4). Suitable gel bands were cut out and subjected to in-gel proteolytic digestion with trypsin. The second lysate aliquot was processed identically, however no free compound was added (DMSO solvent control). Peptides originating from samples 1 and 2 were labeled with iTRAQ reagents (iTRAQ 114 and iTRAQ 117) and the combined samples were analyzed with a nano-flow liquid chromatography system coupled online to a tandem mass spectrometer (LC-MS/MS) experiment followed by iTRAQ reporter ion quantification in the MS/MS spectra (Ross et al., 2004. Mol. Cell. Proteomics 3(12):1154-1169). Further experimental protocols can be found in WO2006/134056 and a previous publication (Bantscheff et al., 2007. Nature Biotechnology 25, 1035-1044). Sepharose-beads with the immobilized compound (100 μl beads per pull-down experiment) were equilibrated in lysis buffer and incubated with a cell lysate sample containing 50 mg of protein on an end-over-end shaker (Roto Shake Genie, Scientific Industries Inc.) for 2 hours at 4° C. Beads were collected, transferred to Mobicol-columns (MoBiTech 10055) and washed with 10 ml lysis buffer containing 0.4% NP40 detergent, followed by 5 ml lysis buffer containing 0.2% detergent. To elute bound proteins, 60 μl 2×SDS sample buffer was added to the column. The column was incubated for 30 minutes at 50° C. and the eluate was transferred to a siliconized microfuge tube by centrifugation. Proteins were then alkylated with 108 mM iodoacetamid. Proteins were then separated by SDS-Polyacrylamide electrophoresis (SDS-PAGE). The peptide extracts of samples treated with 10 μM of free compound (CZC31326) and the solvent control (0.5% DMSO) were treated with different variants of the isobaric tagging reagent (iTRAQ Reagents Multiplex Kit, part number 4352135, Applied Biosystems, Foster City, Calif., USA). The iTRAQ reagents are a set of multiplexed, amine-specific, stable isotope reagents that can label peptides on amino groups in up to four different biological samples enabling simultaneous identification and quantitation of peptides. The iTRAQ reagents were used according to instructions provided by the manufacturer. The samples were resuspended in 10 μl 50 mM TEAB solution, pH 8.5 and 10 μl ethanol were added. The iTRAQ reagent was dissolved in 120 μl ethanol and 10 μl of reagent solution were added to the sample. The labeling reaction was performed at room temperature for one hour on a horizontal shaker and stopped by adding 5 μl of 100 mM TEAB and 100 mM glycine in water. The two labeled sampled were then combined, dried in a vacuum centrifuge and resuspended in 10 μl of 0.1% formic acid in water. Relative protein quantitation was performed using peak areas of iTRAQ reporter ion signals essentially as described in an earlier publication (Bantscheff et al., 2007. Nature Biotechnology 25, 1035-1044).
Chain of QIK (Q9H0K1 whole entry): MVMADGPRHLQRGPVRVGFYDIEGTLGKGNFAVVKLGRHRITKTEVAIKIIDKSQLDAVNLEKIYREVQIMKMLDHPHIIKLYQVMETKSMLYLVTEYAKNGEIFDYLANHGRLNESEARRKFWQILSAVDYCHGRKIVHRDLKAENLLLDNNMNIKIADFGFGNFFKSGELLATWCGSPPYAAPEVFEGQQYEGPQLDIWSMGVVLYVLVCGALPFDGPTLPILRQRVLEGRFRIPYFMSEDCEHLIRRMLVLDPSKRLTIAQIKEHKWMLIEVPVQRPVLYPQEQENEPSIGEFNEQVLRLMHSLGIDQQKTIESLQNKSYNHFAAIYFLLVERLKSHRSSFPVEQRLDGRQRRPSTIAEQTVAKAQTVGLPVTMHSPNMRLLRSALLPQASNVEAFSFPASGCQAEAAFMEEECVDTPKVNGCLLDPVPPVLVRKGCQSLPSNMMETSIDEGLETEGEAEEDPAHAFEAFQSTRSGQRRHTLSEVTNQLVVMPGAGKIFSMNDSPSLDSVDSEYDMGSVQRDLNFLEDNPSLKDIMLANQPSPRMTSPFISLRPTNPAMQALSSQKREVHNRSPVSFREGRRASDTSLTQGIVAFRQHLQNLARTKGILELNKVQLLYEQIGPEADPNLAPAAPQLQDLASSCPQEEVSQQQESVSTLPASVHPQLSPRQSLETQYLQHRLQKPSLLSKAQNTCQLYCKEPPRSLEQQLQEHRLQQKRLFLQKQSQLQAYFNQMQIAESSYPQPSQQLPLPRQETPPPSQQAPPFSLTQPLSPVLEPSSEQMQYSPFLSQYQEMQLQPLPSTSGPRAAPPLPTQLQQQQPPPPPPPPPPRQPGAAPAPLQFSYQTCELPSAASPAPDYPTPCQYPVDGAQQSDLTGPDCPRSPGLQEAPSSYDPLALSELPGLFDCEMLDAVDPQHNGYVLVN

Experiment [2] addresses BIKE (Homo sapiens, UniProt Q9NSY1). How it is done:
as §1

Experiment [3] deals with CDK5 (Homo sapiens, UniProt Q00535). The method, then:
as §1

In experiment [4] the target is RSK3 (Homo sapiens, UniProt Q15349). How it is done: as §1
Chain of RSK3 (Q15349 whole entry): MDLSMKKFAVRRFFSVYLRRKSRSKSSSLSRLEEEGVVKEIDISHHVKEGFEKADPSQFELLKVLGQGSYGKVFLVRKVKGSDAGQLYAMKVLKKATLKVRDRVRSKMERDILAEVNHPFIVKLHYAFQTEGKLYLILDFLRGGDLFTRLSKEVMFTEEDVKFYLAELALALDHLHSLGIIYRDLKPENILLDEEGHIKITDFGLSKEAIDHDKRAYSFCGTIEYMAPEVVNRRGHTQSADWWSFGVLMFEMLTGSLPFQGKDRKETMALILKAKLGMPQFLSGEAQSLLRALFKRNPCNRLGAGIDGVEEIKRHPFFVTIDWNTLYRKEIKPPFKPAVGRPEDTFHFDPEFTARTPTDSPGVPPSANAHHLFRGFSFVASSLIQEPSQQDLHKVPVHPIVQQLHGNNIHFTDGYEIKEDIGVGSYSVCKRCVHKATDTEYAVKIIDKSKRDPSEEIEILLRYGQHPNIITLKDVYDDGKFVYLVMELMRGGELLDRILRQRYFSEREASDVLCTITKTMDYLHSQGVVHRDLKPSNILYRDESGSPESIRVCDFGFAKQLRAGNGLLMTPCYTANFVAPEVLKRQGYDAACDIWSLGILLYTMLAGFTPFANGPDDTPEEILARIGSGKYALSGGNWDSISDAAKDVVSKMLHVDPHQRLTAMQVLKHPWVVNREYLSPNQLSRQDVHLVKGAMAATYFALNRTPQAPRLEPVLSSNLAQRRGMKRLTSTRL
Experiment [5] has as its target AMPKa1 (Homo sapiens, UniProt Q13131). The method, then: as §1
Experiment [6] concerns the target CaMK2g (Homo sapiens, UniProt Q13555). The method, then: as §1
Experiment [7] has as its target T1, AurA (Homo sapiens, UniProt O14965).
T1 sequence (O14965 1-403): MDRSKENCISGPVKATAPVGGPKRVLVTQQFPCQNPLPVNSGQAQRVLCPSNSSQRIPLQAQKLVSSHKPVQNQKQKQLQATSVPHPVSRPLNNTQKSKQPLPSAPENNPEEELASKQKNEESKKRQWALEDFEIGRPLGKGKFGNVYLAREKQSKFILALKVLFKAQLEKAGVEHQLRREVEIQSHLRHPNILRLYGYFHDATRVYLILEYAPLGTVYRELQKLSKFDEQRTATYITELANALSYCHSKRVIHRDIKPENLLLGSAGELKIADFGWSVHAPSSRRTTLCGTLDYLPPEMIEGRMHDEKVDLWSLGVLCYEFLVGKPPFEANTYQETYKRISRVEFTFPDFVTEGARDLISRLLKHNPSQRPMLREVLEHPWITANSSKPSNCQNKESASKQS
How it is done: as §1

Chain of BIKE (Q9NSY1 whole entry): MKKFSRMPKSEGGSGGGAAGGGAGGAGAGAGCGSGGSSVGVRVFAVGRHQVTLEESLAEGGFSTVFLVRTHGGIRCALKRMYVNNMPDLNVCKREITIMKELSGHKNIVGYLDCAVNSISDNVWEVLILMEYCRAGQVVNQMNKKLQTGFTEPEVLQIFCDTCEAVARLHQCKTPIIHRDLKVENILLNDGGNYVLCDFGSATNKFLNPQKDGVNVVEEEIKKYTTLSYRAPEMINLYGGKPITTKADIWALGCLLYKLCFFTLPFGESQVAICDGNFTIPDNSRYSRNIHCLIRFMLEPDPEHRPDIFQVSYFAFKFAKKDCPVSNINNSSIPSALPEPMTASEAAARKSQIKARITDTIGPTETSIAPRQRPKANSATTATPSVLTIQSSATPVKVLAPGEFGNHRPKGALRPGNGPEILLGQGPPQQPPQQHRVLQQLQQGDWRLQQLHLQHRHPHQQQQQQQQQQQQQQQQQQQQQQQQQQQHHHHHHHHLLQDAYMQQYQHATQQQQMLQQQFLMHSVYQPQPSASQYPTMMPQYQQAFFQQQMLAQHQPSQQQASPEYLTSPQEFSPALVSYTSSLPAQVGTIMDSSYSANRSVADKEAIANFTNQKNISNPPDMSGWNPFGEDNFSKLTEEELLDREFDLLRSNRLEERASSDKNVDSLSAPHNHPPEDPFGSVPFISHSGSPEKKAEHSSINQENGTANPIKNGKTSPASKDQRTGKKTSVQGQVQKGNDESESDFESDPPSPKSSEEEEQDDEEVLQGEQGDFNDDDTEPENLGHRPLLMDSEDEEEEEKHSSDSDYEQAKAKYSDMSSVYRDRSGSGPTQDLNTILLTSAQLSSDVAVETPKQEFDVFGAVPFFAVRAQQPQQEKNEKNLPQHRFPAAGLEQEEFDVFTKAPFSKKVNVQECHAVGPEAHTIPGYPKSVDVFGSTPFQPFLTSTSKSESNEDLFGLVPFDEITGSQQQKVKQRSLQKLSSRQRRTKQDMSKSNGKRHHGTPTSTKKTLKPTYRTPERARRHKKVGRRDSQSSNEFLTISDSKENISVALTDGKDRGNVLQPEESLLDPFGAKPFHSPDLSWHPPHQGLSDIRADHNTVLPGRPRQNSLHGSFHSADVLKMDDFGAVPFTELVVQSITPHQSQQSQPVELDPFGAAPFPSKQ
Chain of CDK5 (Q00535 whole entry): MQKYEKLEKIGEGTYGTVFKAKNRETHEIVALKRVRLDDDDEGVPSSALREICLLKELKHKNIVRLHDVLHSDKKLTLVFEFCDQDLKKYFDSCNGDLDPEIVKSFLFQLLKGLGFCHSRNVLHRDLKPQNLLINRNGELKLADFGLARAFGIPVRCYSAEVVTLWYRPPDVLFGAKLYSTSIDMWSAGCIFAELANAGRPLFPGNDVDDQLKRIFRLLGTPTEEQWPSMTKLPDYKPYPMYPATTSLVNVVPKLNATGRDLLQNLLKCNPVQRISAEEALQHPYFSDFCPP
Chain of CaMK2g (Q13555 whole entry): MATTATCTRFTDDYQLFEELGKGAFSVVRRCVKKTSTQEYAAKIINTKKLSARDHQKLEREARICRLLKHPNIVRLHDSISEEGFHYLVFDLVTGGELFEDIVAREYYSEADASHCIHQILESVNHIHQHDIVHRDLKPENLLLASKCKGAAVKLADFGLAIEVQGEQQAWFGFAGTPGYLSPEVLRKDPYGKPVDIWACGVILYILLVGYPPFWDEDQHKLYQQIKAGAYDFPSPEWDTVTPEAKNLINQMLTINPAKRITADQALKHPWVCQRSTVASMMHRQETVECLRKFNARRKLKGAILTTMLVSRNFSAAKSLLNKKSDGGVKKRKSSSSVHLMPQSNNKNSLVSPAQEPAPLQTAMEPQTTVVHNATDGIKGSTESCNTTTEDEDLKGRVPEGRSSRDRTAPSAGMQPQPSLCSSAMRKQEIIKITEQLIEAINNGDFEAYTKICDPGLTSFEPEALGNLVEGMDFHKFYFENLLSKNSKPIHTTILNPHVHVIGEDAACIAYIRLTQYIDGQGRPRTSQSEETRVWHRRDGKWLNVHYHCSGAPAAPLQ
Chain of AMPKa1 (Q13131 whole entry): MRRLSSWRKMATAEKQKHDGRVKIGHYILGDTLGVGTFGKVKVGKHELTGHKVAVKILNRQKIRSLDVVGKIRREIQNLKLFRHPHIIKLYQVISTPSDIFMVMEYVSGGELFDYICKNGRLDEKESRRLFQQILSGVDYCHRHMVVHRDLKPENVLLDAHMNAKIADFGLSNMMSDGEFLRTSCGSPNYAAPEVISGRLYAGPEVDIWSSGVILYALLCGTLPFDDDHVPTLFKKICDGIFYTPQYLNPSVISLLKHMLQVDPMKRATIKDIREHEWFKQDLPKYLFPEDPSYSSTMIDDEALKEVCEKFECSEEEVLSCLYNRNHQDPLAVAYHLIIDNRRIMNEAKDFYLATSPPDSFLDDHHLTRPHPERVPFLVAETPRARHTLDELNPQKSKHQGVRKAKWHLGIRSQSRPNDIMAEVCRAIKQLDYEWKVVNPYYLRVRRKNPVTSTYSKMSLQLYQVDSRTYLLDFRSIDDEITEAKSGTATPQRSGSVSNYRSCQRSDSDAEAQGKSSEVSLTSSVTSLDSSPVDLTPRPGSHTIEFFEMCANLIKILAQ
Chain of AMPKa1 (Q9Y478 2-270 partner limits assumed): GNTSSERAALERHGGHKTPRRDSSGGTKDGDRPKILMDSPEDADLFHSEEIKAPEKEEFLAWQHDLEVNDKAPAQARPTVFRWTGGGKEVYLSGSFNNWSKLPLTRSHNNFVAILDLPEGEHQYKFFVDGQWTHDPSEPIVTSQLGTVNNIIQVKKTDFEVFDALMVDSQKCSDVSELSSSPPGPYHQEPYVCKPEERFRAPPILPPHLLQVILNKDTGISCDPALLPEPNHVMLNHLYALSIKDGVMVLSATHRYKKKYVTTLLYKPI
Chain of AMPKa1 (P54619 whole entry partner): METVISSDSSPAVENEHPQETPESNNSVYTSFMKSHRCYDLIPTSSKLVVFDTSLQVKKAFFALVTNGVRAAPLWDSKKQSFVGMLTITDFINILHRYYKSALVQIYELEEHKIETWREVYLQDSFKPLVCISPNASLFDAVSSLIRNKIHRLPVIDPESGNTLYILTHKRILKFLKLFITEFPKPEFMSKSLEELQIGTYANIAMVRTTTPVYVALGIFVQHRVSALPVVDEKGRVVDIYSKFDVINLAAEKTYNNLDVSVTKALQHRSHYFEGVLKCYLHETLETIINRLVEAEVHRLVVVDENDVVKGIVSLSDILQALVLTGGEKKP

In the case of `CS(=O)(=O)Nc1ccccc1Nc1nc(Nc2cccc(OCCN)c2)ncc1Cl` [CZC31326, N-(2-(2-(3-(2-aminoethoxy)phenylamino)-5-chloropyrimidin-4-ylamino)phenyl)methanesulfonamide], the inhibition at 10 µM in experiment [1] was 94.2%; in experiment [2], 97.6%; in experiment [3], 95.2%; in experiment [4], 96.9%; in experiment [5], 97.7%; in experiment [6], 90.4%. Also, the inhibition at 10 µM in experiment [7] stood at 96.6%.
